Data as given in BindingDB's records for doi:10.1021/jm00108a031 (Roche Research Center, 1991).

Legend:
[1] = In vitro for platelet activating factor receptor antagonist activity in a binding assay using washed whole dog platelets.
[2] = Compound tested in vitro for Platelet activating factor receptor antagonist activity in a binding assay using washed whole dog platelets

Compound | IC50 [1] | IC50 [2]
Cc1nnc2n1-c1sc(CCc3ccc4c(c3)CCC4)cc1C(c1ccccc1Cl)=NC2 | 20 nM | 
Cc1nnc2n1-c1sc(CCc3ccc(CC(C)C)cc3)cc1C(c1ccccc1Cl)=NC2 | 30 nM | 
Cc1nnc2n1-c1sc(C#Cc3ccc4c(c3)CCC4)cc1C(c1ccccc1Cl)=NC2 | 380 nM | 
Cc1nnc2n1-c1sc(C#Cc3cccc4ccccc34)cc1C(c1ccccc1Cl)=NC2 |  | 150 nM
Cc1nnc2n1-c1sc(-c3nn[nH]c3C(=O)N3CCOCC3)cc1C(c1ccccc1Cl)=NC2 | 1000 nM | 
Cc1nnc2n1-c1sc(/C=C\c3ccc(CC(C)C)cc3)cc1C(c1ccccc1Cl)=NC2 | 80 nM | 
Cc1nnc2n1-c1sc(C#CCO)cc1C(c1ccccc1Cl)=NC2 | 180 nM | 
Cc1nnc2n1-c1sc(-c3cc(=O)[nH][nH]3)cc1C(c1ccccc1Cl)=NC2 | 1000 nM | 
Cc1nnc2n1-c1sc(/C=C\c3ccc4c(c3)CCC4)cc1C(c1ccccc1Cl)=NC2 | 110 nM | 
Cc1nnc2n1-c1sc(C#Cc3ccc(-c4ccccn4)s3)cc1C(c1ccccc1Cl)=NC2 | 60 nM | 
CCCCc1ccc(/C=C\c2cc3c(s2)-n2c(C)nnc2CN=C3c2ccccc2Cl)cc1 | 10 nM | 
Cc1nnc2n1-c1sc(/C=C\c3ccccn3)cc1C(c1ccccc1Cl)=NC2 |  | 400 nM
Cc1nnc2n1-c1sc(CCc3ccc4c(c3)CCO4)cc1C(c1ccccc1Cl)=NC2 | 20 nM | 
Cc1nnc2n1-c1sc(C#CC(=O)N3CCOCC3)cc1C(c1ccccc1Cl)=NC2 |  | 260 nM
CCCCc1ccc(CCc2cc3c(s2)-n2c(C)nnc2CN=C3c2ccccc2Cl)cc1 | 10 nM | 
Cc1cc(C#Cc2cc3c(s2)-n2c(C)nnc2CN=C3c2ccccc2Cl)cc2c1OC(C)(C)C2 | 400 nM | 

Compound | IC50 [1] | IC50 [2]
Cc1nnc2n1-c1sc(CCc3ccc(C4CCCCC4)cc3)cc1C(c1ccccc1Cl)=NC2 | 35 nM | 
CCCCc1ccc(C#Cc2cc3c(s2)-n2c(C)nnc2CN=C3c2ccccc2Cl)cc1 | 650 nM | 
Cc1nnc2n1-c1sc(C#Cc3ccc(CC(C)C)cc3)cc1C(c1ccccc1Cl)=NC2 |  | 100 nM
Cc1nnc2n1-c1sc(CCc3ccc(-c4ccccn4)s3)cc1C(c1ccccc1Cl)=NC2 | 8 nM | 
Cc1cc(CCc2cc3c(s2)-n2c(C)nnc2CN=C3c2ccccc2Cl)cc2c1OC(C)(C)C2 | 400 nM | 
Cc1nnc2n1-c1sc(C#Cc3ccc(C4CCCCC4)cc3)cc1C(c1ccccc1Cl)=NC2 | 300 nM | 
C#Cc1cc2c(s1)-n1c(C)nnc1CN=C2c1ccccc1Cl | 10 nM | 
Cc1nnc2n1-c1sc(C#C[Si](C)(C)C)cc1C(c1ccccc1Cl)=NC2 | 20 nM | 
Cc1nnc2n1-c1sc(C#Cc3ccccc3)cc1C(c1ccccc1Cl)=NC2 |  | 100 nM
Cc1nnc2n1-c1sc(CCc3ccc(-n4ccnc4)cc3)cc1C(c1ccccc1Cl)=NC2 | 100 nM | 
Cc1nnc2n1-c1sc(/C=C\c3ccc(C4CCCCC4)cc3)cc1C(c1ccccc1Cl)=NC2 | 120 nM | 
Cc1nnc2n1-c1sc(/C=C\C(=O)N3CCOCC3)cc1C(c1ccccc1Cl)=NC2 | 180 nM | 
Cc1nnc2n1-c1sc(C(CC(=O)N3CCOCC3)N=N)cc1C(c1ccccc1Cl)=NC2 (configuration not stated) | 420 nM | 
Cc1nnc2n1-c1sc(C#Cc3ccccn3)cc1C(c1ccccc1Cl)=NC2 | 250 nM | 
Cc1nnc2n1-c1sc(C#Cc3ccc4c(c3)CCO4)cc1C(c1ccccc1Cl)=NC2 | 420 nM | 
Cc1nnc2n1-c1sc(Br)cc1C(c1ccccc1Cl)=NC2 [2-Bromo-4-(2-chloro-phenyl)-9-methyl-6H-1-thia-5,7,8,9a-tetraaza-cyclopenta[e]azulene] | 300 nM | 
